How the values were obtained:
[1] = test system: mice; experiment: Anticonvulsant effect against pentylene tetrazole shock, mice; format: in vivo; details: relative to chlordiazepoxide = 1.00, larger value = less effective
Protocol: (§1) The pharmacalogical activity of the novel compounds of this invention was evaluated by standard methods such as the anticonvulsant effect against pentylene tetrazole shock and maximal and minimal electroshock, muscle relaxing ability, the fighting test, and hypnotic effect. These standard test are described in detail in the literature, for example, in L. O. Randall, C. L. Schenkel, R. F. Banziger, Curr. Ther. Res., Clin. Exp., 590 (1965), and M. I. Gluckman, Curr. Ther. Res., Clin. Exp., 7,721 (1965).
(§2) This Example illustrates the pharmacological effectiveness of the compounds of this invention. A number of the compounds of this invention were tested for their pharmacological effect on the CNS by the procedures described above. Also tested were the corresponding racemic mixtures and three commercial tranquillizers:
(§3) The results of the tests are shown in Table IV wherein the relative potencies compared with that of chlordiazepoxide which is assigned an activity of 1.00. […] It can also be seen that the pharmaceutically active compounds of this invention compare favorably with some commercially useful tranquillizers and even surpass them in some respects.

[2] = test system: mice; experiment: Anticonvulsant effect against maximal electroshock, mice; format: in vivo; details: relative to chlordiazepoxide = 1.00, larger value = less effective
Protocol: as §1, §2, §3

[3] = test system: mice; experiment: Anticonvulsant effect against minimal electroshock, mice; format: in vivo; details: relative to chlordiazepoxide = 1.00, larger value = less effective
Protocol: as §1, §2, §3

[4] = test system: mice; experiment: Muscle relaxation (muscle relaxing ability), mice; format: in vivo; details: relative to chlordiazepoxide = 1.00, larger value = less effective
Protocol: as §1, §2, §3

[5] = test system: mice; experiment: Fighting test, mice; format: in vivo; details: relative to chlordiazepoxide = 1.00, larger value = less effective
Protocol: as §1, §2, §3

[6] = test system: mice; experiment: Hypnotic effect, mice; format: in vivo; details: relative to chlordiazepoxide = 1.00, larger value = less effective
Protocol: as §1, §2, §3

[7] = LD 50 P.O., mice; details: mouse, in vivo, po
[8] = test system: experimental animals; details: R- form; even at low dosages; cited from earlier work
[9] = S- form; cited from earlier work

Q: With `CC1N=C(c2ccccc2)c2cc(Cl)ccc2NC1=O` (racemic) [20 (Rac.)] as the compound, how does the “Relative potency, anticonvulsant effect, pentylene tetrazole” value (“Relative potency … pentylene tetrazole” for short) [1] read?
A: 30.40

Q: What about the “Relative potency, anticonvulsant effect, maximal electro shock” value (from here on “Relative potency … maximal electro shock”) [2] of the same compound?
A: 8.20

Q: What about the “Relative potency, anticonvulsant effect, minimal electro shock” value (“Relative potency … minimal electro shock” below) [3] of the same compound?
A: 5.00

Q: What about the “Relative potency, muscle relaxation” value [4] of the same compound?
A: 9.60

Q: And the “Relative potency, fighting test” value [5]?
A: 10.4

Q: And the “Relative potency, hypnotic effect” value [6]?
A: 2.30

Q: With `O=C1Nc2ccc(Cl)cc2C(c2ccccc2)=NC1Cc1ccccc1` (racemic) [21 (Rac.)] as the compound, how does the “Relative potency … pentylene tetrazole” value [1] read?
A: 40.50

Q: What about the “Relative potency … maximal electro shock” value [2] of the same compound?
A: 10.30

Q: What about the “Relative potency … minimal electro shock” value [3] of the same compound?
A: 20.60

Q: And the “Relative potency, muscle relaxation” value [4]?
A: 40.70

Q: What about the “Relative potency, fighting test” value [5] of the same compound?
A: 45.8

Q: And the “Relative potency, hypnotic effect” value [6]?
A: 10.70

Q: For `O=C1Nc2ccc(Cl)cc2C(c2ccccc2)=NC1Cc1ccc(O)cc1` (racemic) [22 (Rac.)], which “Relative potency … pentylene tetrazole” value [1] is on record?
A: 75.6

Q: What about the “Relative potency … maximal electro shock” value [2] of the same compound?
A: 65.40

Q: What about the “Relative potency … minimal electro shock” value [3] of the same compound?
A: 16.70

Q: And the “Relative potency, muscle relaxation” value [4]?
A: 46.20

Q: And the “Relative potency, fighting test” value [5]?
A: 56.30

Q: And the “Relative potency, hypnotic effect” value [6]?
A: 18.60

Q: With `O=C1Nc2ccc(Cl)cc2C(c2ccccc2)=NC1Cc1c[nH]c2ccccc12` (racemic) [23 (Rac.)] as the compound, how does the “Relative potency … pentylene tetrazole” value [1] read?
A: 30.60

Q: What about the “Relative potency … maximal electro shock” value [2] of the same compound?
A: 38.70

Q: What about the “Relative potency … minimal electro shock” value [3] of the same compound?
A: 14.60

Q: And the “Relative potency, muscle relaxation” value [4]?
A: 60.50

Q: What about the “Relative potency, fighting test” value [5] of the same compound?
A: 80.30

Q: And the “Relative potency, hypnotic effect” value [6]?
A: 8.30

Q: For `CC(O)C1N=C(c2ccccc2)c2cc(Cl)ccc2NC1=O` (racemic) [24 (Rac.)], which “Relative potency … pentylene tetrazole” value [1] is on record?
A: 105.60

Q: What about the “Relative potency … maximal electro shock” value [2] of the same compound?
A: 12.60

Q: What about the “Relative potency … minimal electro shock” value [3] of the same compound?
A: 3.27

Q: And the “Relative potency, muscle relaxation” value [4]?
A: 5.42

Q: What about the “Relative potency, fighting test” value [5] of the same compound?
A: 16.30

Q: What about the “Relative potency, hypnotic effect” value [6] of the same compound?
A: 3.20

Q: Which results are given for `CC(C)C1N=C(c2ccccc2)c2cc(Cl)ccc2NC1=O` (racemic) [25 (Rac.)]?
A: Relative potency, anticonvulsant effect, pentylene tetrazole [1]: 20.4; Relative potency, anticonvulsant effect, maximal electro shock [2]: 20.30; Relative potency, anticonvulsant effect, minimal electro shock [3]: 4.70; Relative potency, muscle relaxation [4]: 8.60; Relative potency, fighting test [5]: 9.30; Relative potency, hypnotic effect [6]: 4.20

Q: Which “Relative potency … pentylene tetrazole” value [1] does the source give for `CC1N=C(c2ccccc2)c2cc(Cl)ccc2N(C)C1=O` (racemic) [26 (Rac.)] here?
A: 47.30

Q: And the “Relative potency … maximal electro shock” value [2]?
A: 10.20

Q: What about the “Relative potency … minimal electro shock” value [3] of the same compound?
A: 2.10

Q: And the “Relative potency, muscle relaxation” value [4]?
A: 6.54

Q: And the “Relative potency, fighting test” value [5]?
A: 8.94

Q: And the “Relative potency, hypnotic effect” value [6]?
A: 2.70

Q: For `CN1C(=O)C(OCC(O)CO)N=C(c2ccccc2)c2cc(Cl)ccc21` (racemic) [31 (Rac.)], which “Relative potency … pentylene tetrazole” value [1] is on record?
A: 105.4

Q: What about the “Relative potency … maximal electro shock” value [2] of the same compound?
A: 4.72

Q: And the “Relative potency … minimal electro shock” value [3]?
A: 2.30

Q: And the “Relative potency, muscle relaxation” value [4]?
A: 9.60

Q: What about the “Relative potency, fighting test” value [5] of the same compound?
A: 8.74

Q: And the “Relative potency, hypnotic effect” value [6]?
A: 2.30

Q: What does the source list for `C[C@@H]1N=C(c2ccccc2)c2cc(Cl)ccc2NC1=O` [20 (S)]?
A: Relative potency, anticonvulsant effect, pentylene tetrazole [1]: 4.1; Relative potency, anticonvulsant effect, maximal electro shock [2]: 1.32; Relative potency, anticonvulsant effect, minimal electro shock [3]: 0.20; Relative potency, muscle relaxation [4]: 1.0; Relative potency, fighting test [5]: 1.0; Relative potency, hypnotic effect [6]: 0.4; LD50 [7]: 2300 mg/kg

Q: Which “Relative potency … pentylene tetrazole” value [1] does the source give for `O=C1Nc2ccc(Cl)cc2C(c2ccccc2)=N[C@H]1Cc1ccccc1` [21 (S)] here?
A: 5.30

Q: And the “Relative potency … maximal electro shock” value [2]?
A: 4.82

Q: What about the “Relative potency … minimal electro shock” value [3] of the same compound?
A: 2.30

Q: And the “Relative potency, muscle relaxation” value [4]?
A: 4.10

Q: And the “Relative potency, fighting test” value [5]?
A: 4.50

Q: And the “Relative potency, hypnotic effect” value [6]?
A: 2.10

Q: What about the LD50 [7] of the same compound?
A: 1600 mg/kg

Q: Which results are given for `O=C1Nc2ccc(Cl)cc2C(c2ccccc2)=N[C@H]1Cc1ccc(O)cc1` [22 (S)]?
A: Relative potency, anticonvulsant effect, pentylene tetrazole [1]: 7.3; Relative potency, anticonvulsant effect, maximal electro shock [2]: 6.30; Relative potency, anticonvulsant effect, minimal electro shock [3]: 1.42; Relative potency, muscle relaxation [4]: 4.30; Relative potency, fighting test [5]: 5.70; Relative potency, hypnotic effect [6]: 4.20; LD50 [7]: 1850 mg/kg

Q: Which “Relative potency … pentylene tetrazole” value [1] does the source give for `O=C1Nc2ccc(Cl)cc2C(c2ccccc2)=N[C@H]1Cc1c[nH]c2ccccc12` [23 (S)] here?
A: 3.20

Q: What about the “Relative potency … maximal electro shock” value [2] of the same compound?
A: 4.10

Q: What about the “Relative potency … minimal electro shock” value [3] of the same compound?
A: 1.70

Q: What about the “Relative potency, muscle relaxation” value [4] of the same compound?
A: 6.20

Q: What about the “Relative potency, fighting test” value [5] of the same compound?
A: 7.10

Q: And the “Relative potency, hypnotic effect” value [6]?
A: 0.80

Q: And the LD50 [7]?
A: 2300 mg/kg

Q: With `C[C@@H](O)[C@@H]1N=C(c2ccccc2)c2cc(Cl)ccc2NC1=O` [24 (S)] as the compound, how does the “Relative potency … pentylene tetrazole” value [1] read?
A: 10.30

Q: And the “Relative potency … maximal electro shock” value [2]?
A: 1.30

Q: And the “Relative potency … minimal electro shock” value [3]?
A: 0.45

Q: And the “Relative potency, muscle relaxation” value [4]?
A: 0.62

Q: What about the “Relative potency, fighting test” value [5] of the same compound?
A: 1.70

Q: What about the “Relative potency, hypnotic effect” value [6] of the same compound?
A: 0.51

Q: What about the LD50 [7] of the same compound?
A: 6000 mg/kg

Q: With `CC(C)[C@@H]1N=C(c2ccccc2)c2cc(Cl)ccc2NC1=O` [25 (S)] as the compound, how does the “Relative potency … pentylene tetrazole” value [1] read?
A: 1.80

Q: What about the “Relative potency … maximal electro shock” value [2] of the same compound?
A: 1.75

Q: And the “Relative potency … minimal electro shock” value [3]?
A: 0.30

Q: And the “Relative potency, muscle relaxation” value [4]?
A: 1.15

Q: What about the “Relative potency, fighting test” value [5] of the same compound?
A: 1.40

Q: What about the “Relative potency, hypnotic effect” value [6] of the same compound?
A: 0.80

Q: And the LD50 [7]?
A: 1850 mg/kg

Q: With `C[C@@H]1N=C(c2ccccc2)c2cc(Cl)ccc2N(C)C1=O` [26 (S)] as the compound, how does the “Relative potency … pentylene tetrazole” value [1] read?
A: 5.80

Q: What about the “Relative potency … maximal electro shock” value [2] of the same compound?
A: 0.90

Q: What about the “Relative potency … minimal electro shock” value [3] of the same compound?
A: 0.10

Q: What about the “Relative potency, muscle relaxation” value [4] of the same compound?
A: 0.70

Q: And the “Relative potency, fighting test” value [5]?
A: 1.00

Q: What about the “Relative potency, hypnotic effect” value [6] of the same compound?
A: 0.80

Q: And the LD50 [7]?
A: 2600 mg/kg

Q: Which “Relative potency … pentylene tetrazole” value [1] does the source give for `CN1C(=O)C(OCC(O)CO)N=C(c2ccccc2)c2cc(Cl)ccc21` [31 (S)] here?
A: 10.30

Q: And the “Relative potency … maximal electro shock” value [2]?
A: 0.38

Q: What about the “Relative potency, muscle relaxation” value [4] of the same compound?
A: 0.80

Q: And the “Relative potency, fighting test” value [5]?
A: 1.0

Q: What about the “Relative potency, hypnotic effect” value [6] of the same compound?
A: 0.42

Q: And the LD50 [7]?
A: 6000 mg/kg

Q: Which “Relative potency … pentylene tetrazole” value [1] does the source give for `CN1CCN=C(c2ccccc2)c2cc(Cl)ccc21` [Medazepam, 7-chloro-5-phenyl-1-methyl-1,2-dihydro-3H-1,4-benzodiazepine] here?
A: 6.2

Q: What about the “Relative potency … maximal electro shock” value [2] of the same compound?
A: 1.03

Q: And the “Relative potency … minimal electro shock” value [3]?
A: 0.32

Q: What about the “Relative potency, muscle relaxation” value [4] of the same compound?
A: 1.3

Q: What about the “Relative potency, fighting test” value [5] of the same compound?
A: 1.0

Q: And the “Relative potency, hypnotic effect” value [6]?
A: 0.30

Q: And the LD50 [7]?
A: 1420 mg/kg

Q: For `O=C1Nc2ccc(Cl)cc2C(c2ccccc2)=NC1O` (stereo not drawn) [Oxazepam, 7-chloro-1,3-dihydro-3-hydroxy-5-phenyl-2H-1,4-benzodiazepine-2-one], which “Relative potency, muscle relaxation” value [4] is on record?
A: 0.62

Q: And the LD50 [7]?
A: 3700 mg/kg

Q: With `CC[C@H](CO)NCCN[C@H](CC)CO` [R- form, Ethambutole] as the compound, how does the “known adverse effect in experimental animals” value [8] read?
A: causes blindness in experimental animals, even at low dosages

Q: With `CC[C@@H](CO)NCCN[C@@H](CC)CO` [S- form of Ethambutole, Ethambutole] as the compound, how does the known pharmacological action [9] read?
A: anti-tuberculous agent
